In US20230123334A1, “AMINO LIPID COMPOUND, PREPARATION METHOD THEREFOR, AND APPLICATION THEREOF” (SHENZHEN SHENXIN BIOTECHNOLOGY CO., LTD., priority 2020, published 2023):

What was measured:
[1] = system: HEK293 cells; test: Preliminary screening as mRNA vectors, EGFP mRNA transfection of HEK293 cells; format: cell-based; details: HEK293 cells, 96-well plates, EGFP mRNA 50 ng per well; percentage of GFP fluorescent cells relative to total number of cells (Hoechst)
How it was run: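 Screening format: EGFP mRNA transfection (50 ng/well) into HEK293 in 10% FBS-supplemented DMEM. Percent green fluorescent cells, normalised to Hoechst nuclear count, gave the value; Lipofectamine2000 was the reference transfectant.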

[2] = system: HEK293 cells; test: Preliminary screening as DNA vectors, GFP transfection of HEK293 cells; format: cell-based; details: HEK293 cells; lipid/DOPE liposome with 75 ng plasmid DNA (psin-EGFP-IRES-Puro); number of cells expressing GFP divided by total number of nuclei (Hoechst)
How it was run: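 First, amino lipid and DOPE were vortexed in sodium acetate buffer (pH 5.6) to form liposomes. Next, these were held with 75 ng EGFP plasmid at room temperature for 30 min. Finally, HEK293 cells were added, cultured at 37° C., Hoechst-stained, and GFP+/total nuclei scored by imaging.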

Compound: CCCCCCCCCCCCCCCCNc1nc(NCCCCCCCCCCCCCCCC)nc(NCCN2CCN(C)CC2)n1 [Compound N16N16D5]
- Absolute mRNA transfection efficiency in HEK293 cells [1]: 0.0%
- Absolute DNA transfection efficiency in HEK293 cells [2]: 0.0%

Compound: CCCCCCCCCCCCCCCCNc1nc(NCCCCCCCCCCCCCCCC)nc(NCCCN(C)C)n1 [Compound N16N16D6]
- Absolute mRNA transfection efficiency in HEK293 cells [1]: 0.0%
- Absolute DNA transfection efficiency in HEK293 cells [2]: 0.9%

Compound: CCCCCCCCCCCCCCCCNc1nc(NCCCCCCCCCCCCCCCC)nc(NCCN(CC)CC)n1 [Compound N16N16D7]
- Absolute mRNA transfection efficiency in HEK293 cells [1]: 7.9%
- Absolute DNA transfection efficiency in HEK293 cells [2]: 0.0%

Compound: CCCCCCCCCCCCCCCCNc1nc(NCCCCCCCCCCCCCCCC)nc(NCCCN2CCOCC2)n1 [Compound N16N16D8]
- Absolute mRNA transfection efficiency in HEK293 cells [1]: 1.6%
- Absolute DNA transfection efficiency in HEK293 cells [2]: 0.5%

Compound: CCCCCCCCCCCCCCCCNc1nc(NCCCCCCCCCCCCCCCC)nc(NCCCN2CCN(C)CC2)n1 [Compound N16N16D9]
- Absolute mRNA transfection efficiency in HEK293 cells [1]: 0.0%
- Absolute DNA transfection efficiency in HEK293 cells [2]: 1.9%

Compound: CCCCCCCCCCCCCCCCNc1nc(NCCCCCCCCCCCCCCCC)nc(NCC2CCN(C)CC2)n1 [Compound N16N16D10]
- Absolute mRNA transfection efficiency in HEK293 cells [1]: 0.0%
- Absolute DNA transfection efficiency in HEK293 cells [2]: 0.0%

Compound: CCCCCCCCCCCCCCCCCCNc1nc(NCCCCCCCCCCCCCCCC)nc(NCCN(C)C)n1 [Compound N16N18D1]
- Absolute mRNA transfection efficiency in HEK293 cells [1]: 0.0%
- Absolute DNA transfection efficiency in HEK293 cells [2]: 1.2%

Compound: CCCCCCCCCCCCCCCCCCNc1nc(NCCCCCCCCCCCCCCCC)nc(NCCN2CCOCC2)n1 [Compound N16N18D2]
- Absolute mRNA transfection efficiency in HEK293 cells [1]: 0.0%
- Absolute DNA transfection efficiency in HEK293 cells [2]: 1.2%

Compound: CCCCCCCCCCCCCCCCCCNc1nc(NCCCCCCCCCCCCCCCC)nc(NCCN2CCCC2)n1 [Compound N16N18D3]
- Absolute mRNA transfection efficiency in HEK293 cells [1]: 20.8%
- Absolute DNA transfection efficiency in HEK293 cells [2]: 0.4%

Compound: CCCCCCCCCCCCCCCCCCNc1nc(NCCCCCCCCCCCCCCCC)nc(NCCN2CCCCC2)n1 [Compound N16N18D4]
- Absolute mRNA transfection efficiency in HEK293 cells [1]: 1.8%
- Absolute DNA transfection efficiency in HEK293 cells [2]: 0.6%

Compound: CCCCCCCCCCCCCCCCCCNc1nc(NCCCCCCCCCCCCCCCC)nc(NCCN2CCN(C)CC2)n1 [Compound N16N18D5]
- Absolute mRNA transfection efficiency in HEK293 cells [1]: 0.0%
- Absolute DNA transfection efficiency in HEK293 cells [2]: 1.1%

Compound: CCCCCCCCCCCCCCCCCCNc1nc(NCCCCCCCCCCCCCCCC)nc(NCCCN(C)C)n1 [Compound N16N18D6]
- Absolute mRNA transfection efficiency in HEK293 cells [1]: 4.4%
- Absolute DNA transfection efficiency in HEK293 cells [2]: 0.0%

Compound: CCCCCCCCCCCCCCCCCCNc1nc(NCCCCCCCCCCCCCCCC)nc(NCCN(CC)CC)n1 [Compound N16N18D7]
- Absolute mRNA transfection efficiency in HEK293 cells [1]: 0.0%
- Absolute DNA transfection efficiency in HEK293 cells [2]: 0.0%

Compound: CCCCCCCCCCCCCCCCCCNc1nc(NCCCCCCCCCCCCCCCC)nc(NCCCN2CCOCC2)n1 [Compound N16N18D8]
- Absolute mRNA transfection efficiency in HEK293 cells [1]: 1.0%
- Absolute DNA transfection efficiency in HEK293 cells [2]: 0.0%

Compound: CCCCCCCCCCCCCCCCCCNc1nc(NCCCCCCCCCCCCCCCC)nc(NCCCN2CCN(C)CC2)n1 [Compound N16N18D9]
- Absolute mRNA transfection efficiency in HEK293 cells [1]: 0.0%
- Absolute DNA transfection efficiency in HEK293 cells [2]: 0.0%

Compound: CCCCCCCCCCCCCCCCCCNc1nc(NCCCCCCCCCCCCCCCC)nc(NCC2CCN(C)CC2)n1 [Compound N16N18D10]
- Absolute mRNA transfection efficiency in HEK293 cells [1]: 1.8%
- Absolute DNA transfection efficiency in HEK293 cells [2]: 3.0%

Compound: CCCCCCCCCCCCCCCCCCNc1nc(NCCCCCCCCCCCCCCCCCC)nc(NCCN(C)C)n1 [Compound N18N18D1]
- Absolute mRNA transfection efficiency in HEK293 cells [1]: 2.2%
- Absolute DNA transfection efficiency in HEK293 cells [2]: 1.9%

Compound: CCCCCCCCCCCCCCCCCCNc1nc(NCCCCCCCCCCCCCCCCCC)nc(NCCN2CCOCC2)n1 [Compound N18N18D2]
- Absolute mRNA transfection efficiency in HEK293 cells [1]: 0.0%
- Absolute DNA transfection efficiency in HEK293 cells [2]: 0.0%

Compound: CCCCCCCCCCCCCCCCCCNc1nc(NCCCCCCCCCCCCCCCCCC)nc(NCCN2CCCC2)n1 [Compound N18N18D3]
- Absolute mRNA transfection efficiency in HEK293 cells [1]: 40.0%
- Absolute DNA transfection efficiency in HEK293 cells [2]: 2.0%

Compound: CCCCCCCCCCCCCCCCCCNc1nc(NCCCCCCCCCCCCCCCCCC)nc(NCCN2CCCCC2)n1 [Compound N18N18D4]
- Absolute mRNA transfection efficiency in HEK293 cells [1]: 0.0%
- Absolute DNA transfection efficiency in HEK293 cells [2]: 0.9%

Compound: CCCCCCCCCCCCCCCCCCNc1nc(NCCCCCCCCCCCCCCCCCC)nc(NCCN2CCN(C)CC2)n1 [Compound N18N18D5]
- Absolute mRNA transfection efficiency in HEK293 cells [1]: 0.0%
- Absolute DNA transfection efficiency in HEK293 cells [2]: 1.1%

Compound: CCCCCCCCCCCCCCCCCCNc1nc(NCCCCCCCCCCCCCCCCCC)nc(NCCCN(C)C)n1 [Compound N18N18D6]
- Absolute mRNA transfection efficiency in HEK293 cells [1]: 4.4%
- Absolute DNA transfection efficiency in HEK293 cells [2]: 0.3%

Compound: CCCCCCCCCCCCCCCCCCNc1nc(NCCCCCCCCCCCCCCCCCC)nc(NCCN(CC)CC)n1 [Compound N18N18D7]
- Absolute mRNA transfection efficiency in HEK293 cells [1]: 0.0%
- Absolute DNA transfection efficiency in HEK293 cells [2]: 0.3%

Compound: CCCCCCCCCCCCCCCCCCNc1nc(NCCCCCCCCCCCCCCCCCC)nc(NCCCN2CCOCC2)n1 [Compound N18N18D8]
- Absolute mRNA transfection efficiency in HEK293 cells [1]: 0.0%
- Absolute DNA transfection efficiency in HEK293 cells [2]: 0.1%

Compound: CCCCCCCCCCCCCCCCCCNc1nc(NCCCCCCCCCCCCCCCCCC)nc(NCCCN2CCN(C)CC2)n1 [Compound N18N18D9]
- Absolute mRNA transfection efficiency in HEK293 cells [1]: 0.0%
- Absolute DNA transfection efficiency in HEK293 cells [2]: 0.0%

Compound: CCCCCCCCCCCCCCCCCCNc1nc(NCCCCCCCCCCCCCCCCCC)nc(NCC2CCN(C)CC2)n1 [Compound N18N18D10]
- Absolute mRNA transfection efficiency in HEK293 cells [1]: 0.0%
- Absolute DNA transfection efficiency in HEK293 cells [2]: 0.0%

Compound: CCCCCCCCCCCCCCSc1nc(NCCN(C)C)nc(SCCCCCCCC)n1 [Compound S8S14D1]
- Absolute mRNA transfection efficiency in HEK293 cells [1]: 0.7%
- Absolute DNA transfection efficiency in HEK293 cells [2]: 8.3%

Compound: CCCCCCCCCCCCCCSc1nc(NCCN2CCOCC2)nc(SCCCCCCCC)n1 [Compound S8S14D2]
- Absolute mRNA transfection efficiency in HEK293 cells [1]: 0.4%
- Absolute DNA transfection efficiency in HEK293 cells [2]: 18.5%

Compound: CCCCCCCCCCCCCCSc1nc(NCCN2CCCC2)nc(SCCCCCCCC)n1 [Compound S8S14D3]
- Absolute mRNA transfection efficiency in HEK293 cells [1]: 3.4%
- Absolute DNA transfection efficiency in HEK293 cells [2]: 13.9%

Compound: CCCCCCCCCCCCCCSc1nc(NCCN2CCCCC2)nc(SCCCCCCCC)n1 [Compound S8S14D4]
- Absolute mRNA transfection efficiency in HEK293 cells [1]: 3.1%
- Absolute DNA transfection efficiency in HEK293 cells [2]: 9.3%

Compound: CCCCCCCCCCCCCCSc1nc(NCCN2CCN(C)CC2)nc(SCCCCCCCC)n1 [Compound S8S14D5]
- Absolute mRNA transfection efficiency in HEK293 cells [1]: 52.7%
- Absolute DNA transfection efficiency in HEK293 cells [2]: 29.9%

Compound: CCCCCCCCCCCCCCSc1nc(NCCCN(C)C)nc(SCCCCCCCC)n1 [Compound S8S14D6]
- Absolute mRNA transfection efficiency in HEK293 cells [1]: 79.5%
- Absolute DNA transfection efficiency in HEK293 cells [2]: 16.2%

Compound: CCCCCCCCCCCCCCSc1nc(NCCN(CC)CC)nc(SCCCCCCCC)n1 [Compound S8S14D7]
- Absolute mRNA transfection efficiency in HEK293 cells [1]: 1.3%
- Absolute DNA transfection efficiency in HEK293 cells [2]: 7.5%

Compound: CCCCCCCCCCCCCCSc1nc(NCCCN2CCOCC2)nc(SCCCCCCCC)n1 [Compound S8S14D8]
- Absolute mRNA transfection efficiency in HEK293 cells [1]: 3.4%
- Absolute DNA transfection efficiency in HEK293 cells [2]: 17.1%

Compound: CCCCCCCCCCCCCCSc1nc(NCCCN2CCN(C)CC2)nc(SCCCCCCCC)n1 [Compound S8S14D9]
- Absolute mRNA transfection efficiency in HEK293 cells [1]: 13.5%
- Absolute DNA transfection efficiency in HEK293 cells [2]: 16.0%

Compound: CCCCCCCCCCCCCCSc1nc(NCC2CCN(C)CC2)nc(SCCCCCCCC)n1 [Compound S8S14D10]
- Absolute mRNA transfection efficiency in HEK293 cells [1]: 60.5%
- Absolute DNA transfection efficiency in HEK293 cells [2]: 41.1%

Compound: CCCCCCCCCCCCCCCSc1nc(NCCN(C)C)nc(SCCCCCCCC)n1 [Compound S8S15D1]
- Absolute mRNA transfection efficiency in HEK293 cells [1]: 0.4%
- Absolute DNA transfection efficiency in HEK293 cells [2]: 8.1%

Compound: CCCCCCCCCCCCCCCSc1nc(NCCN2CCOCC2)nc(SCCCCCCCC)n1 [Compound S8S15D2]
- Absolute mRNA transfection efficiency in HEK293 cells [1]: 0.0%
- Absolute DNA transfection efficiency in HEK293 cells [2]: 10.8%

Compound: CCCCCCCCCCCCCCCSc1nc(NCCN2CCCC2)nc(SCCCCCCCC)n1 [Compound S8S15D3]
- Absolute mRNA transfection efficiency in HEK293 cells [1]: 0.9%
- Absolute DNA transfection efficiency in HEK293 cells [2]: 21.8%

Compound: CCCCCCCCCCCCCCCSc1nc(NCCN2CCCCC2)nc(SCCCCCCCC)n1 [Compound S8S15D4]
- Absolute mRNA transfection efficiency in HEK293 cells [1]: 2.6%
- Absolute DNA transfection efficiency in HEK293 cells [2]: 11.2%

Compound: CCCCCCCCCCCCCCCSc1nc(NCCN2CCN(C)CC2)nc(SCCCCCCCC)n1 [Compound S8S15D5]
- Absolute mRNA transfection efficiency in HEK293 cells [1]: 40.0%
- Absolute DNA transfection efficiency in HEK293 cells [2]: 31.2%
